Results on seven molecules are retold here after patent publication US20240261429A1, “CPMV BINDING PEPTIDE” (The Regents of the University of California, priority 2021, published 2024).

Test [1] has as its target CPMV. Briefly: Competitive ELISA between synthetic CBP peptides and monoclonal phage MPSEF. Type of test: binding, Cowpea mosaic virus. To be noted: for Kd: competition binding ELISA against MPSEF, read-out: dissociation constant KD. On the procedure: 5 μg of CPMV (in 0.1 M bicarbonate buffer, pH 8.6) was coated into each well of a Nunc Maxisorp™ flat-bottom 96-well plate and incubated overnight at 4° C. 2% (w/v) BSA was also coated to serve as negative control. Next day, the plate was blocked with 2% (w/v) BSA and incubated at rt with shaking at 800 rpm for 1 h. Subsequently, the plate was washed thrice with 0.1% TBST for 1 min. 100 μL of amplified phage from the last biopanning cycle was added into each well followed by incubation at rt with shaking at 800 rpm for 1 h. Later, the plate was washed thrice with 0.5% TBST for 5 min. 100 μL of 1:500 dilution of HRP-conjugated anti-M monoclonal antibody (Abcam ab50370) was added and incubated at rt for 1 h with shaking at 8 rpm. The plate was again washed thrice with 0.5% TBST for 5 min followed by adding 100 μL of tetramethylbenzidine (TMB) substrate (Thermo Scientific Pierce) into each well. The plate was incubated at dark for 10 min and the absorbance was measured at 370 nm using an Infinite 200 Rx plate reader (Tecan Life Sciences) with 25 flashes in 96-well flat-bottom plate mode. Monoclonal phages with at least 0.3 difference in absorbance value between CPMV and BSA were subjected for DNA sequencing (Eurofins Genomics).
Competitive ELISA was performed as mentioned in ‘Monoclonal ELISA’ with modifications. Two-fold serial dilutions of CPMV peptide (0.500 μg, 0.250 μg, 0.125 μg, 0.063 μg, 0.031 μg, 0.016 μg, 0.008 μg, 0.004 μg, 0.002 μg) were added separately into the well together with 10^9 pfu of monoclonal phages. The reaction after incubation with TMB substrate was stopped with 50 μL of 2 N H2SO4. Colorimetric detection was carried out by measurement at 450 nm using an Infinite 200 Rx plate reader (Tecan Life Sciences) with 25 flashes in 96-well flat-bottom plate mode.
To determine the dissociation constant KD, competition binding ELISAs were set up. Here binding of synthetic CBPs (used in a dilution series) to CPMV was competed against MPSEF (used as constant amount). Phage MPSEF was detected by HRP-conjugated anti-M13 monoclonal antibody and measured at OD450 nm. CPMV bound MPSEF (OD450 nm) is inversely proportionate to the amount of peptide loaded for competition. The amount of MPSEF binding to CPMV reduced with the increasing amount of synthetic peptides, subsequently yielded lower absorbance value (FIG. 4G and FIG. 4H). […] Different modes of peptide modification resulted different IC50 and KD values despite having the exact same sequence.

Test [2] relates to CPMV coat proteins (S and L protein). Briefly: Modified western blot of CBP-biotin on denatured CPMV coat proteins. Type of test: binding, Cowpea mosaic virus. To be noted: denatured S and L protein on nitrocellulose, streptavidin HRP (FIG. 3C). On the procedure:
10 μg of CPMV was loaded onto a NuPage™ 12% bis-tris gel (Thermo Fisher Scientific) and electrophoresed for 40 min at 200 V. Proteins were then blotted onto Amersham Protran 0.45 Nitrocellulose membrane (GE Healthcare) at 25 V for 2 h. The membrane was then blocked with 5% (w/v) BSA for 1 h at rt with gentle shaking. Subsequently, the membrane was washed thrice with 0.5% TBST for 1 min. 1 μg/mL of CPMV-biotin peptide was added to the membrane for 1 h incubation at rt. The membrane was then washed with 0.5% TBST for min. 100 μL of 1:500 dilution of HRP-conjugated anti-streptavidin monoclonal antibody (Abcam ab7403) was added and incubated at rt for 1 h. Following three washes with 0.5% TBST, the membrane was developed with DAB substrate kit, peroxidase HRP (Vector Laboratories) for 5-10 min. The DAB reagent was drained off and the bands were documented with ProteinSimple FluorChem®.

Test [3] relates to CPMV. Briefly: Peptide ELISA of CBP-biotin on streptavidin plate. The format is binding, Cowpea mosaic virus. The note with it: 5 μg CPMV, vs. control without CPMV, p<0.0001 (FIG. 4E). On the procedure:
The plate was blocked with 2% (w/v) BSA followed by three washings with 0.1% TBST for 1 min per wash. 5 μg of CPMV was added for binding and incubated for 1 h at rt with shaking at 8 rpm. Then the plate was washed thrice with 0.5% TBST for 5 min each wash. 100 μL of anti-CPMV rabbit polyclonal antibodies (1:500 dilution) was added to the wells followed by incubation at rt for 1 h with shaking at 800 rpm. Following three washing steps using 0.5% TBST for 5 min, 100 μL of HRP conjugated goat anti-rabbit antibodies (1:5000 dilution; Pacific Immunology) was added to the wells and incubated at rt for 1 h with shaking at 800 rpm. Finally, the plate was washed thrice with 0.5% TBST followed by adding 100 μL of TMB substrate (Thermo Scientific Pierce) into each well. The plate was incubated in the dark for 5-10 min and the reaction was stopped with 50 μL of 2N H2SO4. Absorbance was measured at 450 nm using an Infinite 200 Rx plate reader (Tecan Life Sciences) with 25 flashes in 96-well flat-bottom plate mode.
Next, Applicant performed a series of enzyme-linked immunosorbent assays (ELISAs) using the CBP-FITC and CBP-biotin to further probe their binding affinity to CPMV. CBP-biotin was coated onto a streptavidin-functionalized plate, this was followed by incubation with CPMV (CPMV was omitted for the control) (FIG. 4E). […]

Test [4] addresses p185HER2/neu (Homo sapiens, UniProt P04626). To be noted: binding to p185HER2/neu; cited from earlier work.
The subject of test [5] is CPMV. In words: Native agarose gel electrophoresis of FITC peptides with CPMV. Type of test: binding, Cowpea mosaic virus. To be noted: 1.2% agarose gel after dual-purification. As to the method:
10 μg of FITC peptide conjugated CPMV was loaded onto a 1.2% (w/v) TAE agarose gel. 10 μg of CPMV and 1 μg of free CPMV-FITC peptide was loaded as control. The samples were electrophoresed at 110 V for 40 min.
The dual functional CBP-AHNP peptide was synthesized by fusing AHNP to the C-terminus of the CBP domain. A control peptide (*AHNP) without the CBP domain was also synthesized; both peptides were modified with a FITC label at their C terminus. CPMV-CBP-AHNP and controls were characterized by native agarose gel electrophoresis as described above.

In test [6] the target is T1, Cowpea mosaic virus (CPMV) (Cowpea mosaic virus), P03599.
T1 chain 1: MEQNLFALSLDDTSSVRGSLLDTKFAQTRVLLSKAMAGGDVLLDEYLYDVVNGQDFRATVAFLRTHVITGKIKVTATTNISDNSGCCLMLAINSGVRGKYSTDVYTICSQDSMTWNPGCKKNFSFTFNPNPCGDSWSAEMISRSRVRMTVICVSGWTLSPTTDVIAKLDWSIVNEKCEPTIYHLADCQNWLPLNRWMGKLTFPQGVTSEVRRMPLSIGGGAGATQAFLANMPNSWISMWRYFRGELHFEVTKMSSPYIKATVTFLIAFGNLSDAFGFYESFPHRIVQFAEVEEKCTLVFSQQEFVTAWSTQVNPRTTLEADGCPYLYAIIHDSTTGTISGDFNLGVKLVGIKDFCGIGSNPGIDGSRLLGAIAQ
T1 chain 2: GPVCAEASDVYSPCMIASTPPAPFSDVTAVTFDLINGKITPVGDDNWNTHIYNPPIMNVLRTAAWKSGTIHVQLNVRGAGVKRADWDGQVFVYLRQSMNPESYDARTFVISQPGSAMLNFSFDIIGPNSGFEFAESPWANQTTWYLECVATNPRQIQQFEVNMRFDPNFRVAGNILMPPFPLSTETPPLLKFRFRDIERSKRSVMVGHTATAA
Briefly: competitive ELISA against MPSEF phage (10^9 pfu) on coated CPMV.

The target in test [7] is T1, Cowpea mosaic virus (CPMV) (Cowpea …). Briefly: from competition binding ELISA against MPSEF phage on coated CPMV.
For test [8] the target is unchanged. Briefly: UV/visible spectroscopy of the purified complex (500-molar excess of peptide).
Setting [9] is: peptide dilution series competed against constant MPSEF phage for CPMV, OD450 nm.

Primed or numbered codes have the meaning given here. Ends that are not written are not given here. Peptide text beside a SMILES is read from it. * marks the point of attachment. FITC = O=C1OC2(c3ccc(O)cc3Oc3cc(O)ccc32)c2ccc(NC(=S)*)cc21; Biotin = O=C1N[C@H]2[C@H](CS[C@H]2CCCCC(=O)*)N1; FITC′ = fluorescein isothiocyanate

Consider `CC(C)[C@H](NC(=O)[C@H](CCCNC(=N)N)NC(=O)[C@H](Cc1c[nH]c2ccccc12)NC(=O)CN)C(=O)N[C@@H](CO)C(=O)N[C@@H](CCC(=O)O)C(=O)N[C@@H](Cc1ccccc1)C(=O)NCC(=O)NCC(=O)NCC(=O)N[C@@H](CO)C(=O)N[C@@H](CCCCNC(=S)Nc1ccc2c(c1)C(=O)OC21c2ccc(O)cc2Oc2cc(O)ccc21)C(=O)O` [CBP-FITC] (H-GWRVSEFGGGSK(FITC)-OH; N-terminus and C-terminus assumed), for which the Kd in test [1] was ~700 nM. Besides, the “half maximal inhibition concentration (IC50)” value in test [1] (setting [9]) turned out to be 0.56 µg.

For `CC(C)[C@H](NC(=O)[C@H](CCCNC(=N)N)NC(=O)[C@H](Cc1c[nH]c2ccccc12)NC(=O)CN)C(=O)N[C@@H](CO)C(=O)N[C@@H](CCC(=O)O)C(=O)N[C@@H](Cc1ccccc1)C(=O)NCC(=O)NCC(=O)NCC(=O)N[C@@H](CO)C(=O)N[C@@H](CCCCNC(=O)CCCC[C@@H]1SC[C@@H]2NC(=O)N[C@@H]21)C(=O)O` [CBP-biotin] (H-GWRVSEFGGGSK(Biotin)-OH; N-terminus and C-terminus assumed), in test [1], the Kd is ~7 nM. Also, the “half maximal inhibition concentration (IC50)” value in test [1] (setting [9]) is 0.17 µg. The IC50 in test [1] (peptide dilution series competed against constant MPSEF phage for CPMV, OD450 nm, read-out: half maximal inhibition concentration (IC50)) is 1140 nM. The “binding to CPMV coat proteins in western blot” value in test [2] was “bound to the CPMV coat proteins”. Moreover, in test [3], the “CPMV binding in ELISA” value is listed as “consistent with CPMV binding”.

With “FCDGFYACYMDV [AHNP, cyclic peptide derived from monoclonal antibody trastuzumab, HER2 ligand]”, in test [4], the Kd was 300 nM.

For “N-GWRVSEF-KKKKKKKKDDDD-FCDGFYACYMDVK/FITC/-C (GWRVSEFKKKKKKKKDDDDFCDGFYACYMDVK; not fully specified (C-terminus, bridges); cysteine pairing not given here; also: FITC label at C-terminal Lys) [CBP-AHNP, dual functional peptide, AHNP fused to the C-terminus of the CBP domain, FITC label]”, in test [5], the “labeling of CPMV seen by native agarose gel electrophoresis (FITC signal with RNA and protein band)” value was “successful labeling”.

“N-KKKKKKKKDDDD-FCDGFYACYMDVK/FITC/-C (KKKKKKKKDDDDFCDGFYACYMDVK; not fully specified (C-terminus, bridges); cysteine pairing not given here; also: FITC label at C-terminal Lys) [*AHNP, control peptide without the CBP domain, FITC label at C terminus, reference compound]”: the “labeling of CPMV seen by native agarose gel electrophoresis (FITC signal with RNA and protein band)” value in test [5] is “no non-specific interaction”.

On to GWRVSEFGGGSK-{FITC′} (not fully specified (residue 12)) [CBP-FITC (N-…/FITC/-C)], for which, in test [6], the IC50 is 3340 nM. This molecule showed a Kd in test [7] of 700 nM. The CBP-FITC peptides per CPMV particle (peptides per CPMV particle) in test [8] was found to be 6.

In the case of GWRVSEFGGGSK-biotin (not fully specified (residue 12)) [CBP-biotin (N-…/biotin/-C)], the IC50 in test [6] was 1140 nM. The same molecule showed a Kd in test [7] of 7 nM.
